Results as given in patent US10588963B2, “Methods for providing adjuvanted virosomes and adjuvanted virosomes obtainable thereby” (Bestewil Holding B.V., priority 2014, dated 2020).

Test: Equilibrium density gradient centrifugation of adjuvanted RSV virosomes
Assay type: physicochemical
Conditions: 10-60% sucrose gradient, spun 66 hrs, after overnight storage at 4° C.
Procedure: To 975 μl of virosomes, containing 850 nmol of phospholipids, 25 μl of DMSO solution containing 153 nmol of 3-D-PHAD was rapidly added while agitating the sample on a vortex mixer. After overnight storage at 4° C., the density of the virosomes was analyzed by equilibrium density gradient centrifugation loaded on 10-60% sucrose gradients, which were spun for 66 hrs in a Sorvall AH 650 rotor at 50 krpm. […] Samples from the gradient were analyzed for sucrose concentration by refractometry, giving a measure of density, phosphate (both lipid and 3-D-PHAD), and protein.
The above adjuvant solutions were added to four tubes with 950 μl of virosomes each, containing 850 nmol of phospholipids, with rapid mixing on a vortex. After overnight storage at 4° C., the density of the virosomes was analyzed by equilibrium density gradient centrifugation on 10-60% sucrose gradients, which were spun for 66 hrs in a Sorvall AH 650 rotor at 120 000 g. Samples from the gradient were analyzed for density, phosphate (both lipid and 3 DPHAD), and protein.

SMILES: CCCCCCCCCCCCCC(=O)O[C@H](CCCCCCCCCCC)CC(=O)O[C@@H]1[C@@H](NC(=O)C[C@@H](CCCCCCCCCCC)OC(=O)CCCCCCCCCCC)[C@H](OC[C@H]2O[C@H](O)[C@H](NC(=O)C[C@H](O)CCCCCCCCCCC)[C@@H](O)[C@@H]2O)O[C@H](CO)[C@H]1OP(=O)(O)O.N [3-D-PHAD]
- density of band in equilibrium density gradient: around 1.12 g/ml
